{"source": "patent US20080139797A1", "about": "“OLIGONUCLEOTIDES CONTAINING HIGH CONCENTRATIONS OF GUANINE MONOMERS” (INTEGRATED DNA TECHNOLOGIES, INC., priority 2006, published 2008)", "test": "Solubility of monomers and BTT in 1:1 mixes of acetonitrile and a solvent", "assay_type": "physicochemical", "description": "The BTT (MW 192.2., water content ≦75 ppm) was supplied by emp Biotech GmbH (catalog no. NC-0101-1K, charge/lot no. 050904). The dT (MW 744.83), dG^ibu (MW 839.92), dA^bz (MW 857.93), dC^bz (MW 833.93) monomers were supplied by Proligo. The acetonitrile (MeCN) has a viscosity of 0.345 cP at 25° C. and a dipole moment of 3.92 D.\n74.5 mg (100 μmol) of dT monomer was weighed out into each of 7 screw-topped 10 ml vials. 84 mg (100 μmol) of dG^ibu monomer was weighed out into each of 7 screw-topped 10 ml vials. 86 mg (100 μmol) of dA^bz monomer was weighed out into each of 7 screw-topped 10 ml vials. 83 mg (100 μmol) of dC^bz monomer was weighed out into each of 7 screw-topped 10 ml vials. 228 mg (1.2 mmol) of BTT was weighed out into each of 7 screw-topped 10 ml vials.\nSix different solvent mixes were prepared by mixing 10 ml of dry acetonitrile with 10 ml of one of the 6 different solvents listed above in separate dry bottles under argon.\nTo each separate vial of T monomer was added 1 ml of one of the 6 different solvent mixes or pure acetonitrile. The vials were quickly closed and agitated gently. This was repeated with the vials of dG, dA and dC monomers.\nTo each separate vial of BTT was added 4 ml of one of the 6 solvent mixes."}
{"smiles": "c1ccc(CSc2nnn[nH]2)cc1", "note": "[BTT, 5-benzylthiotetrazole]", "values": [{"measurement": "dissolution of BTT", "setting": "0.3 M, solvent mixes, all cases except HFIP/MeCN", "result": "practically instantaneous"}, {"measurement": "solubility of BTT", "setting": "at 0.3 M in all 5 mixes (acetonitrile 1:1 with NMP, DMA, TMU, DMSO, sulfolane)", "result": "soluble"}, {"measurement": "dissolution of BTT", "setting": "pure acetonitrile, compared with the solvent mixes, gentle warming required for rapid dissolution", "result": "not as fast"}]}
